Literature values as cited in patent US20180055752A1, “TOPICAL COMPOSITIONS TO REDUCE HAIR GROWTH” (The Regents of the University of California, priority 2016, published 2018).
“Also recorded” adds a separate entry of the source. Read-outs that look alike come from different tables or passages of the source.

Columns and labels:
deer hair follicle = conditions: tolbutamide 1 mM
[1] = system: Kir6.2/SUR1 and SUR2B K-ATP channels
[2] = eight children treated for hypoglycemia of infancy
[3] = system: cultured human hair follicles

Structure (SMILES)	inhibition of hair follicle growth (deer hair follicle; glibenclamide at a single concentration)	K-ATP channel subtype selectivity and potency [1]	hypertrichosis as side effect [2]	effect on hair follicle growth stimulated by minoxidil / diazoxide (deer hair follicle; 10 μM minoxidil)	effect on anagen [3]	K-ATP channel subtype selectivity and potency ([1]; listed as Tolbutamide)
COc1ccc(Cl)cc1C(=O)NCCc1ccc(S(=O)(=O)NC(=O)NC2CCCCC2)cc1 [glibenclamide]	did not inhibit deer hair follicle growth	nonselectively blocks both SUR1 and SUR2B forms with high affinity; also recorded: non-selectively blocks both SUR1 and SUR2B forms with high affinity	–	–	–	–
CC1=NS(=O)(=O)c2cc(Cl)ccc2N1 [diazoxide]	–	–	all developed hypertrichosis	–	–	–
CCCCNC(=O)NS(=O)(=O)c1ccc(C)cc1 [tolbutamide]	–	selectively inhibits Kir6.2/SUR1 K-ATP channels with low potency	–	abolished the effect of 10 μM minoxidil, and diazoxide	shorten anagen	selectively inhibits Kir6.2/SUR1 KATP channels with low potency
